The results in this text go back to ChEMBL document CHEMBL1201862, “PubChem BioAssay data set” (2004).

In series [1] the target is T1, Polyadenylate-binding protein 1 (Homo sapiens, UniProt P11940). Nature of the series: PABP1 MLLE–PAM2 interaction inhibitors, dose response, miRNA deadenylation inhibitor project, biochemical, fluorescence polarization, Cy5-PAM2 peptide, secondary (AID 602260). It counts as functional. The conditions noted are these: read-out: IC50_Mean. In general terms: Polarisation of emitted light reports the rotation of a fluorescent probe.
T1 sequence (P11940 whole entry): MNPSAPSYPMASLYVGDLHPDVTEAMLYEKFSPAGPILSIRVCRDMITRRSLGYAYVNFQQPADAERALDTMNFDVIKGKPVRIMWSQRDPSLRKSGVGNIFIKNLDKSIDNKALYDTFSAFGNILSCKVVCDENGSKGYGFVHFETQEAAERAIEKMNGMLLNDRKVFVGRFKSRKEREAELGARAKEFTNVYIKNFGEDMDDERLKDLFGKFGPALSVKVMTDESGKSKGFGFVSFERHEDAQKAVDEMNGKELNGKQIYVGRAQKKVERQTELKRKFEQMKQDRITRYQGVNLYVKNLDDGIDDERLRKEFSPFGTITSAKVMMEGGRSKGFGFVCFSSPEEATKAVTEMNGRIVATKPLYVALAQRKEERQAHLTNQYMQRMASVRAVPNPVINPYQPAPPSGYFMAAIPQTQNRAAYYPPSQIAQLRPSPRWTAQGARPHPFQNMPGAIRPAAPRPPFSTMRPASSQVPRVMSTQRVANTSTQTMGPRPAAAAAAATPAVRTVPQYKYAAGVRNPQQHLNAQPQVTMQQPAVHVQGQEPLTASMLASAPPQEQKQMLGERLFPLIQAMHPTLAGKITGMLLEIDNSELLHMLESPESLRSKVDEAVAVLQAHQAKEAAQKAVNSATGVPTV

Series [2] has as its target T1, Polyadenylate-binding protein 1. Nature of the series: PABP1 MLLE–PAM2 binding inhibitor potency, dose response, biochemical, fluorescence polarization, FITC-PAM2 peptide (AID 602259). The format is functional. The conditions noted are these: read-out: IC50_Mean.
Series [3] in a line: NIH-3T3 fibroblast cytotoxicity, dose response, cytotoxicity control, cell-based, fluorescence, Alamar Blue, secondary assay (AID 2327).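 Further: NIH-3T3 mouse fibroblasts cultured with fluconazole at 8 µg/mL.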 It counts as functional.
Another series has as its target Cytochrome P450 2C19 (Homo sapiens, UniProt P33261). Nature of the series: Cytochrome panel assay with activity outcomes. Panel member name: p450-cyp2c19 Compounds with AC50 equal or less than 10 uM are considered active. The format is functional.
A further series concerns the target Cytochrome P450 2C9 (Homo sapiens, UniProt P11712).
A further series addresses Cytochrome P450 3A4 (Homo sapiens, UniProt P08684).
For series [4], the target named is T2, Zinc finger protein mex-5 (Caenorhabditis elegans, UniProt Q9XUB2).
T2 sequence (Q9XUB2 whole entry): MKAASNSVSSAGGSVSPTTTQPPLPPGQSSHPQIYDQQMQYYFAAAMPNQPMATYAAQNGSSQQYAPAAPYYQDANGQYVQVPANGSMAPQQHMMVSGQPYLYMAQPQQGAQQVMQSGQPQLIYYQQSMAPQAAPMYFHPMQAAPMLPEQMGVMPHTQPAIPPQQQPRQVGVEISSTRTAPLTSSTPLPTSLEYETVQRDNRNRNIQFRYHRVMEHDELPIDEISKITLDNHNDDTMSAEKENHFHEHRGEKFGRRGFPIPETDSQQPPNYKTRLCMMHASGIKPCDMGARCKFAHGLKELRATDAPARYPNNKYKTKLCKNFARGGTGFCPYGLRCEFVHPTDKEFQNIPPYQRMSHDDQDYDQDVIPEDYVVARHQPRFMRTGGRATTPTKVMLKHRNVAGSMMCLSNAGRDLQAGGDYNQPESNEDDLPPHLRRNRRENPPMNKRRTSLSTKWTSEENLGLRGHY
As to the kind of experiment: MEX-5/TCR-2 RNA interaction inhibitors, dose response, biochemical, C. elegans, fluorescence polarization (AID 1960).

Series [5] has as its target T3, RNA-binding protein pos-1 (Caenorhabditis elegans, UniProt G5EF15).
T3 sequence (G5EF15 whole entry): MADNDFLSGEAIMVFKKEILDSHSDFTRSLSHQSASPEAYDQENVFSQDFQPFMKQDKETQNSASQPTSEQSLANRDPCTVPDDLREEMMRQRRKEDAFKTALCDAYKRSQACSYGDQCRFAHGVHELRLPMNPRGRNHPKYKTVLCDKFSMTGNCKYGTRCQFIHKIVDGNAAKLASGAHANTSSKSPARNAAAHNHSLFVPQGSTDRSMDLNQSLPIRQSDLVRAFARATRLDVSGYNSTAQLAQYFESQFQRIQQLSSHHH
As to the kind of experiment: inhibitors of POS-1/mex-3 RNA binding, dose response, biochemical, fluorescence polarization (AID 1964).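 Further: purified POS-1 fused to maltose binding protein made in E. coli; potency of compounds blocking POS-1 binding to fluorescent RNA.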

A short description of series [6]: inhibitors of clade B AD8 Env fusion, dose response, cell-based, cherry-pick (AID 652062).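 Further: luciferase signal from cell-cell fusion driven by HIV-1 clade B AD8 Env; potency is for inhibitors of fusion seen as a drop in luminescence.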 The format is functional.
Series [7] in a line: ZM109 Env clade C HIV-1 fusion inhibitors, dose response, HeLa effector, CEM target cells, luciferase, cherry-pick (AID 652058). It counts as functional, cell-based.
The nature of series [8]: Luminescence Cell-Based Dose Response HTS to Identify Inhibitors of 5'UTR Stem-Loop Driven Prion Protein mRNA Translation in H4 Neuroglioblastoma Cells. [Related pubchem assays: 1827 (Project Summary), 1813 (Primary HTS)]. It counts as functional.
Series [9] is described as follows: inhibitors of firefly luciferase expression or activity, dose response, H4 neuroglioma cells, luminescence (AID 1990). The format is functional, cell-based.
The nature of series [10]: inhibitors of SNCA 5'UTR-driven reporter translation, confirmation, H4 neuroglioma cells, luminescence (AID 1988). It counts as functional, cell-based.
The subject of series [11] is BJ. Nature of the series: cells. It counts as functional, cell-based. To be noted: Homo sapiens.
The test system of series [12] is BJ. As to the kind of experiment: cytotoxicity toward BJ-TERT fibroblasts, dose response, cell-based, RAS-independent, luminescence (AID 1933). It counts as functional. The conditions noted are these: Homo sapiens.
The nature of series [13]: cytotoxicity toward DRD oncogenic fibroblasts, dose response, cell-based, non-viral oncogenic, luminescence (AID 1934). The conditions noted are these: Homo sapiens. The format is functional.
Series [14] concerns BJ. As to the kind of experiment: cytotoxicity toward BJ-TERT-LT-ST fibroblasts, dose response, cell-based, RAS-independent, luminescence (AID 1935).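 Further: BJ fibroblasts immortalized with TERT plus LT and ST oncogenes.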 The conditions noted are these: Homo sapiens. The format is functional.
Series [15] addresses T4, Heat shock factor protein 1 (Mus musculus, UniProt P38532).
T4 sequence (P38532 whole entry): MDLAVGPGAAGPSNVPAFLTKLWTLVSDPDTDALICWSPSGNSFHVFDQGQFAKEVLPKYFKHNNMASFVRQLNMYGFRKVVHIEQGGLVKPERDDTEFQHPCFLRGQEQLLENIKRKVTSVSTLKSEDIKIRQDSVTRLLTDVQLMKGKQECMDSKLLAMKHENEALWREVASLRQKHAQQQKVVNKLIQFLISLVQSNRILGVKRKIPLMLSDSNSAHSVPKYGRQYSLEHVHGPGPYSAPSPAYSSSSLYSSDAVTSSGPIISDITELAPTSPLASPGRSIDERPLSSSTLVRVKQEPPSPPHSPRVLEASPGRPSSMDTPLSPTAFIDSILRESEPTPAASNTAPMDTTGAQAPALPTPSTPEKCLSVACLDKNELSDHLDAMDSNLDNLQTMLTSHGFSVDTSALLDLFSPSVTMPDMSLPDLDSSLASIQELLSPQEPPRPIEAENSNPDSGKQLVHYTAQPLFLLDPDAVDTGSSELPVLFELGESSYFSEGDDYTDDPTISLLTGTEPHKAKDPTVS
Nature of the series: inhibition of MG132-induced HSE-luciferase signal, confirmation, cell-based, NIH3T3, luminescence, dose retest (AID 2382).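 Further: NIH3T3 fibroblasts with HSF1-driven luciferase reporter stressed by proteasome inhibitor MG132; luminescence from HSF1-driven luciferase expression after 8 hours of MG132 stress.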 It counts as functional.

The source made the active and inactive calls.

Cytochrome P450 3A4, sequence (P08684 whole entry): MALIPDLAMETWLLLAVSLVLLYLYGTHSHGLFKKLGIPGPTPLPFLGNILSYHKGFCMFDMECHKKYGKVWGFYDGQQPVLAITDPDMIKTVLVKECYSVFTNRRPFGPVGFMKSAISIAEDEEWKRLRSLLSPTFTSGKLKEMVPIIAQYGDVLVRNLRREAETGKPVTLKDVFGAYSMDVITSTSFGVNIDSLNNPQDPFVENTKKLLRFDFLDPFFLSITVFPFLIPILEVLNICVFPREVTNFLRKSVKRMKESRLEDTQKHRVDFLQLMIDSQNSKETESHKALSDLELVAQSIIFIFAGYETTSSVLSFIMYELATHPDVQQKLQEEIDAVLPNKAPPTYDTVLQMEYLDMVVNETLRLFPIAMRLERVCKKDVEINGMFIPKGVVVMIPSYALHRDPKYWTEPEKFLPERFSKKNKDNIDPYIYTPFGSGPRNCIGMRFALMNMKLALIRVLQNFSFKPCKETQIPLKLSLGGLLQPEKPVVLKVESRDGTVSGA
Cytochrome P450 2C9, sequence (P11712 whole entry): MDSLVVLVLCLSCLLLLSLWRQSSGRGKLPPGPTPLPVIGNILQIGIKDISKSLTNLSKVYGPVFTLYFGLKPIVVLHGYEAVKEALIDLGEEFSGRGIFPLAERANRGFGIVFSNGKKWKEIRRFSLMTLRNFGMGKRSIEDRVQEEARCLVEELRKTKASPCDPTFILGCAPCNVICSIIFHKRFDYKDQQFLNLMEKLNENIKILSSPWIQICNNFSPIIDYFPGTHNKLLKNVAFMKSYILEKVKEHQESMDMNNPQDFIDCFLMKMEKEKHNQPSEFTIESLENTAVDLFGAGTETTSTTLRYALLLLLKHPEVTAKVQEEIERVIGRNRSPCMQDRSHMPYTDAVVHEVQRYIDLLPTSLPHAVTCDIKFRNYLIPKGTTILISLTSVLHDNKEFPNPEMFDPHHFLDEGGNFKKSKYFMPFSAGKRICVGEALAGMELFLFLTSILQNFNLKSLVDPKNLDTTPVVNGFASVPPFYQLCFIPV
Cytochrome P450 2C19, sequence (P33261 whole entry): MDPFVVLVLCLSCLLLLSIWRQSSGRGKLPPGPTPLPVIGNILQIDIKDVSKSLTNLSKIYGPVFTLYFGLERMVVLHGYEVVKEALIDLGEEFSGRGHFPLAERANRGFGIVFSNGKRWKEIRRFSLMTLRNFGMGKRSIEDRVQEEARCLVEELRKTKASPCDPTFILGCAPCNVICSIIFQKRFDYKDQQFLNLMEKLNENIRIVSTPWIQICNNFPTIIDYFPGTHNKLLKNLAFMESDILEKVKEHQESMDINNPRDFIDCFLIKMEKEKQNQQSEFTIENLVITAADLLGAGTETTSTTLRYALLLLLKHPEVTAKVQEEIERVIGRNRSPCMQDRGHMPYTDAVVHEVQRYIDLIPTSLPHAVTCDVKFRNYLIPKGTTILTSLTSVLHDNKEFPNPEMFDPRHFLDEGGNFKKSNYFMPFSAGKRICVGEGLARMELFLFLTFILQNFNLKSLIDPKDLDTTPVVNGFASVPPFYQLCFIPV

Regarding `O=S(=O)(NCCCSc1ccccc1)c1ccccc1F`, the IC50 in [1] and in series [2] was > 66 µM (inactive) throughout.

Regarding `C=C(C)c1cccc(C(C)(C)NC(=O)Nc2ccc(C(N)=O)cc2)c1`, the EC50 (commonly the concentration giving half of the maximal effect) in series [3] is > 150 µM (inactive).

Turning to `Cc1nc(N=C(N)S)sc1C(=O)Nc1ccccc1`, the AC50 – broadly, the midpoint of the concentration-response curve, whichever way the signal moves – on Cytochrome P450 2C19 is “inconclusive”; on Cytochrome P450 2C9, 39.8 µM (inconclusive); on Cytochrome P450 3A4, 14.1 µM (inconclusive). Further, the IC50 in series [1] and in [2] was > 66 µM (inactive) throughout.

On to `O=C(/N=C1\SC2CS(=O)(=O)CC2N1c1ccccc1)C1CC1` (centres undefined), for which the concentration giving a half-maximal response (EC50) is > 300 µM (inconclusive) in series [4] and > 300 µM (not active) in series [5].

Regarding `COC(=O)c1c(N=C(S)Nc2cc(OC)c(Cl)cc2OC)sc2c1CCCCC2`, the IC50 in [1] and in series [2] was > 66 µM (inactive) each time.

Take `C=CC[n+]1c(-c2ccc(OC)c(OC)c2)csc1NNC(=O)Nc1ccccc1`: the AC50 is 15.8 µM (active) in [6] and 0.401 µM (active) in series [7].

With `COC(=O)c1cc(-c2ccccc2)sc1NC(=O)CN1C(=O)c2ccccc2C1=O`, the IC50 in series [1] and in [2] was > 66 µM (inactive) throughout. For the same compound, the concentration at half-maximal activity (AC50) at Cytochrome P450 3A4 is 31.6 µM (inconclusive).

For the compound `COc1ccc(C(=O)NC(=S)N2CCCc3ccccc32)cc1OC`, the IC50 in series [1] and in series [2] was > 66 µM (inactive) each time.

Consider `Cc1ccc2nc(O)c(C(c3nnnn3CC3CCCO3)N3CCc4ccccc4C3)cc2c1` (centres undefined), for which the IC50 in series [1] and in [2] was > 66 µM (inactive) in each case.

For `CCC1(c2ccccc2)NC(=O)N(CC(=O)NCc2ccc(F)cc2)C1=O` (centres undefined), the EC50 in series [4] and in series [5] was > 300 µM (not active) each time.

Consider `O=C(c1ccco1)N1CCN(c2ncnc3c(-c4ccc(Cl)cc4)nsc23)CC1`, for which the half-maximal effective concentration (EC50) in [4] and in series [5] was > 300 µM (not active) in each case.

Take `Cc1cc(O)nc(SCC(=O)Nc2ccc(C(=O)O)cc2)n1`: the IC50 in series [1] and in series [2] was > 66 µM (inactive) throughout.

For `O=C(NC(=S)Nc1ccc(CN2CCOCC2)cc1)c1ccc([N+](=O)[O-])cc1`, the IC50 in series [1] and in [2] was > 66 µM (inactive) each time.

For `O=c1c2ccccc2c(-c2ccc(O)cc2)nn1-c1cccc(C(F)(F)F)c1`, the EC50 in series [8] is > 120 µM (not active); in series [9], 16.6 µM (active); in series [10], > 120 µM (not active).

With `CCCCC1=CC2=CC(=O)C(C)(OC(=O)CCC(=O)OC)C(=O)C2=CO1` (centres undefined), the EC50 in series [4] is 26.6 µM (active); in series [5] it was 30 µM (active).

Take `O=C(O)c1ccc2c(=O)n3c(nc2c1)/C(=C/c1ccc(C(F)(F)F)cc1)CC3`: the 50% effective concentration (EC50) is > 150 µM (not active) in the series on BJ [11], > 150 µM (not active) in the series on BJ [12], > 150 µM (not active) in series [13] and > 150 µM (inconclusive) with BJ [14].

With `CCOc1ccc(N/C(=C(/C(Cl)=C(Cl)Cl)[N+](=O)[O-])n2cncn2)cc1`, the values for the EC50 in series [4] and in [5] were 45.4 µM (active) and 46.9 µM (active), respectively.

Turning to `CCCN1C(=O)/C(=C/c2ccc(C)o2)S/C1=N/c1ccc(OC)cc1`, the figures for the EC50 in series [4] and in [5] were 103 µM (inconclusive) and 44.6 µM (active), respectively.

For `COc1cccc(C(=O)NCc2ccc3[nH]c(C)cc3c2)c1`, the IC50 in [1] and in series [2] was > 66 µM (inactive) each time.

`CC1=C(C#N)C(=O)OC(C)(C)C1`: the EC50 was 10.1 µM (active) in series [4] and 10.8 µM (active) in [5].

Consider `O=C1/C(=C\c2ccccc2)C2OCC=C3CN4CCC56c7ccccc7N1C5C2C3CC46` (centres undefined), for which the concentration for a half-maximal effect (EC50) was > 150 µM (not active) with BJ [11], 19.4 µM (active) in the series with BJ [12], 15.3 µM (active) in [13] and > 75 µM (inconclusive) in the series with BJ [14].

On to `CCN(CC)CCCCNc1ncc2cc(-c3cc(OC)cc(OC)c3)c(NC(=O)NC(C)(C)C)nc2n1` [PD-173074], for which the results for the EC50 in series [8], in series [9] and in series [10] were 12.8 µM (active), > 120 µM (not active) and 9.24 µM (active), respectively.

Regarding `CCOc1ccccc1C(=O)NCC(=O)NNC(=O)CN(C)S(=O)(=O)c1ccc(Cl)cc1`, the AC50 in series [7] was 23.6 µM (active).

Turning to `NC(=O)CC(NC(=O)Cc1ccc(Cl)cc1)c1ccc(NC2CCCCCC2)c([N+](=O)[O-])c1` (centres undefined), the figures for the EC50 in series [15], in series [4] and in [5] were > 195 µM (not active), > 300 µM (not active) and > 300 µM (not active), respectively.

As for `C/C(=N\Nc1ccc([N+](=O)[O-])cc1[N+](=O)[O-])c1cc2c(ccc3ccccc32)oc1=O`, the EC50 in series [4] and in [5] was > 300 µM (not active) throughout.
